Test results taken from publication PMC12655037, “Mitochondrial-Targeted Triphenylphosphonium-Conjugated Ionophores with Enhanced Cytotoxicity in Cancer Cells” (Molecules, 2025).

Legend:
[1] = system: PC3 human metastatic prostate cancer cells; assay: MTT assay, PC3 cells; type: cell-based; conditions: PC-3, 72 h, read-out: IC50 PC3
[2] = system: SW620 human metastatic colon cancer cells; assay: MTT assay, SW620 cells; type: cell-based; conditions: SW-620, 72 h, read-out: IC50 SW620
[3] = system: A549 human lung cancer cells; assay: MTT assay, A549 cells; type: cell-based; conditions: A549, 72 h, read-out: IC50 A549
[4] = system: SW480 human primary colon cancer cells; assay: MTT assay, SW480 cells; type: cell-based; conditions: SW480, 72 h, read-out: IC50 SW480
[5] = Black lipid membrane (BLM) ionic current; conditions: at −60 mV, 50/150 mM KCl (cis/trans) gradient
A549 cells [6] = assay: MitoTracker Red CMXRos flow cytometry (mitochondrial membrane potential), A549; conditions: A549, 48 h at IC50 concentration
A549 cells [7] = assay: MitoTracker Green FM flow cytometry (mitochondrial mass), A549; conditions: A549, 48 h at IC50 concentration
prostate cancer cells = system: prostate cancer cells; design: method as in PMID 21159605; conditions: no significant effects on normal prostate epithelial cells; cited from earlier work

| Compound | IC50 [1] [µM] | IC50 [2] [µM] | IC50 [3] [µM] | IC50 [4] [µM] | ionic current through artificial membrane [5] [pA] | MTRed CMXRos positive stained cells (A549 cells [6]) [%] | cells positive for MTGreen fluorescence (A549 cells [7]) [%] | growth inhibition of prostate cancer cells (prostate cancer cells) |
| --- | --- | --- | --- | --- | --- | --- | --- | --- |
| CC[C@@H](C(=O)[C@@H](C)[C@@H](O)[C@H](C)[C@@H]1O[C@@H]([C@@H](CC)C(=O)O)CC[C@@H]1C)[C@H]1O[C@]2(C=C[C@H](n3cc(COC(=O)CCC[P+](c4ccccc4)(c4ccccc4)c4ccccc4)nn3)[C@]3(CC[C@@](C)([C@H]4CC[C@](O)(CC)[C@H](C)O4)O3)O2)[C@H](C)C[C@@H]1C [1b] | 5.5 ± 1.4 | 16.8 ± 4.4 | 3.9 ± 0.8 | 8.8 ± 2.4 | – | – | – | – |
| CCC1(C2OC(C3OC(O)(CNC(=O)CCC[P+](c4ccccc4)(c4ccccc4)c4ccccc4)C(C)CC3C)CC2C)CCC(C2(C)CCC3(CC(O)C(C)C(C(C)C(OC)C(C)C(=O)O)O3)O2)O1 (centres unmarked) [2e] | > 100 | 28.1 ± 2.1 | > 100 | 46.7 ± 3.1 | – | – | – | – |
| CCCC[P+](CCCC)(CCCC)Cc1cn([C@H]2C=C[C@]3(O[C@H]([C@@H](CC)C(=O)[C@@H](C)[C@@H](O)[C@H](C)[C@@H]4O[C@@H]([C@@H](CC)C(=O)O)CC[C@@H]4C)[C@@H](C)C[C@H]3C)O[C@@]23CC[C@@](C)([C@H]2CC[C@](O)(CC)[C@H](C)O2)O3)nn1 [1d] | 3.6 ± 1.6 | 1.8 ± 0.2 | 3.6 ± 0.5 | 2.5 ± 0.6 | −10 | – | – | – |
| CCC1(C2OC(C3OC(O)(COC(=O)CCC(=O)OCCC[P+](c4ccccc4)(c4ccccc4)c4ccccc4)C(C)CC3C)CC2C)CCC(C2(C)CCC3(CC(O)C(C)C(C(C)C(OC)C(C)C(=O)OCCC[P+](c4ccccc4)(c4ccccc4)c4ccccc4)O3)O2)O1 (centres unmarked) [2f] | 1.4 ± 0.1 | 2.3 ± 0.4 | 1.3 ± 0.2 | 1.7 ± 0.3 | – | 22.5 | – | – |
| CC[C@@H](C(=O)[C@@H](C)[C@@H](O)[C@H](C)[C@@H]1O[C@@H]([C@@H](CC)C(=O)O)CC[C@@H]1C)[C@H]1O[C@]2(C=C[C@@H](O)[C@]3(CC[C@@](C)([C@H]4CC[C@](O)(CC)[C@H](C)O4)O3)O2)[C@H](C)C[C@@H]1C [SAL, Salinomycin, reference compound] | 2.7 ± 0.1 | 1.5 ± 0.06 | 1.6 ± 0.1 | 1.1 ± 0.04 | – | – | – | – |
| CC[C@@H](C(=O)[C@@H](C)[C@@H](O)[C@H](C)[C@@H]1O[C@@H]([C@@H](CC)C(=O)O)CC[C@@H]1C)[C@H]1O[C@]2(C=C[C@H](NC(=O)CCC[P+](c3ccccc3)(c3ccccc3)c3ccccc3)[C@]3(CC[C@@](C)([C@H]4CC[C@](O)(CC)[C@H](C)O4)O3)O2)[C@H](C)C[C@@H]1C [1e] | 4 ± 0.7 | 10.9 ± 2.6 | 5.1 ± 0.8 | 10.4 ± 2.3 | – | – | – | – |
| CC[C@@H](C(=O)[C@@H](C)[C@@H](O)[C@H](C)[C@@H]1O[C@@H]([C@@H](CC)C(=O)OCCCCCC[P+](c2ccccc2)(c2ccccc2)c2ccccc2)CC[C@@H]1C)[C@H]1O[C@]2(C=C[C@@H](OC(=O)CCC(=O)OCCCCCC[P+](c3ccccc3)(c3ccccc3)c3ccccc3)[C@]3(CC[C@@](C)([C@H]4CC[C@](O)(CC)[C@H](C)O4)O3)O2)[C@H](C)C[C@@H]1C [1f] | – | – | – | – | −10 | – | 61.6 | – |
| CC[C@@H](C(=O)[C@@H](C)[C@@H](O)[C@H](C)[C@@H]1O[C@@H]([C@@H](CC)C(=O)O)CC[C@@H]1C)[C@H]1O[C@]2(C=C[C@H](n3cc(CNC(=O)CCC[P+](c4ccccc4)(c4ccccc4)c4ccccc4)nn3)[C@]3(CC[C@@](C)([C@H]4CC[C@](O)(CC)[C@H](C)O4)O3)O2)[C@H](C)C[C@@H]1C [1c] | 12.9 ± 1.3 | 14 ± 4.1 | 15.6 ± 9.1 | 9.8 ± 2 | – | – | – | – |
| CCCC[P+](CCCC)(CCCC)Cc1cn(CC2(O)OC(C3CC(C)C(C4(CC)CCC(C5(C)CCC6(CC(O)C(C)C(C(C)C(OC)C(C)C(=O)O)O6)O5)O4)O3)C(C)CC2C)nn1 (centres unmarked) [2d] | 3.1 ± 0.6 | 4.3 ± 0.01 | 1.4 ± 0.4 | 3.5 ± 0.1 | – | – | – | – |
| CC[C@@H](C(=O)[C@@H](C)[C@@H](O)[C@H](C)[C@@H]1O[C@@H]([C@@H](CC)C(=O)O)CC[C@@H]1C)[C@H]1O[C@]2(C=C[C@H](n3cc(C[P+](c4ccccc4)(c4ccccc4)c4ccccc4)nn3)[C@]3(CC[C@@](C)([C@H]4CC[C@](O)(CC)[C@H](C)O4)O3)O2)[C@H](C)C[C@@H]1C [1a] | 1.2 ± 0.2 | 16.4 ± 2.4 | 2.9 ± 0.5 | 9 ± 3.6 | – | – | – | – |
| CCC1(C2OC(C3OC(O)(Cn4cc(C[P+](c5ccccc5)(c5ccccc5)c5ccccc5)nn4)C(C)CC3C)CC2C)CCC(C2(C)CCC3(CC(O)C(C)C(C(C)C(OC)C(C)C(=O)O)O3)O2)O1 (centres unmarked) [2a] | 0.4 ± 0.1 | 0.7 ± 0.2 | 0.3 ± 0.02 | 0.5 ± 0.1 | – | – | – | – |
| CC[C@@]1([C@@H]2O[C@@H]([C@H]3O[C@@](O)(CO)[C@H](C)C[C@@H]3C)C[C@@H]2C)CC[C@H]([C@]2(C)CC[C@]3(C[C@H](O)[C@@H](C)[C@@H]([C@@H](C)[C@@H](OC)[C@H](C)C(=O)O)O3)O2)O1 [MON, Monensin A] | – | – | – | – | – | – | – | selectively inhibited the growth of prostate cancer cells at nanomolar concentrations |
| CCC1(C2OC(C3OC(O)(Cn4cc(CNC(=O)CCC[P+](c5ccccc5)(c5ccccc5)c5ccccc5)nn4)C(C)CC3C)CC2C)CCC(C2(C)CCC3(CC(O)C(C)C(C(C)C(OC)C(C)C(=O)O)O3)O2)O1 (centres unmarked) [2c] | 14.5 ± 2.1 | 10.6 ± 0.4 | 14.9 ± 3.4 | 18.3 ± 0.4 | – | – | – | – |
| CCC1(C2OC(C3OC(O)(Cn4cc(COC(=O)CCC[P+](c5ccccc5)(c5ccccc5)c5ccccc5)nn4)C(C)CC3C)CC2C)CCC(C2(C)CCC3(CC(O)C(C)C(C(C)C(OC)C(C)C(=O)O)O3)O2)O1 (centres unmarked) [2b] | 0.7 ± 0.3 | 1.5 ± 0.2 | 3.4 ± 1.1 | 0.8 ± 0.04 | – | – | – | – |
